The values that follow are results of earlier work, collected in patent US20230143731A1, “NANOMATERIALS FOR TARGETED TREATMENT OF PULMONARY TISSUE” (The University of North Carolina at Chapel Hill, priority 2020, published 2023).

The data set relates to ACE. The conditions noted are these: with and without the C-terminal serine.

For TPTQQS, the ACE inhibition was 73%. On to TPTQQ [TPTQQ peptide], for which the ACE inhibition is 26%.
